According to patent US11542266B1, “Substituted piperidines as BTK inhibitors” (HAISCO PHARMACEUTICALS PTE. LTD., priority 2019, dated 2023):
Structures can show the parent of a compound that is named as a salt. Where two headings read alike, the source gives them in different places.

Test system: Mino cells
Test: Inhibition of cell proliferation, Mino cells (Cell Viability Assay, 72 h)
Format: cell-based, human
Settings: for Mino Max inhi. %: inhibition rate at the highest concentration of the compound
Protocol: SU-DHL-4, Mino, and SU-DHL-6 cells, in the culture medium of RPMI1640+10% FBS, were cultured in an incubator at 37° C. under 5% CO2. Cells were plated in a 96-well plate. Specifically, SU-DHL-4 cells were at 20000/well, Mino and SU-DHL-6 cells were at 5000/well, with 90 μL/well. 10 μL of the compounds at different concentrations were added to each well. There were 3 replicate wells for each concentration, and the last column, added with DMSO, was used as a vehicle control group. The cultures were continued for 72 hours at 37° C. under 5% CO2. After 72 hours, 100 μL of detection reagent (Cell Viability Assay, Promega, G7573) was added to each well, and the cultures were uniformly mixed for 2 minutes, and incubated at room temperature for 10 minutes. The fluorescence signal value was measured with a microplate reader (PHERAstar FSX). The IC50 value of the compound on cell proliferation inhibition was calculated using Origin 9.2 software, and the inhibition rate at the highest concentration of the compound (Max inhi. %) was calculated according to formula (1). Max inhi. %=(1-T72 administration/T72 vehicle)×100 Formula (1).

Row | Structure (SMILES) | Mino Max inhi. % | other results
1 | Nc1ncnc2c1c(-c1ccc(Oc3ccccc3)cc1)nn2C1CCN(C2CCC3(CC2)CN(C2CCC4(CC2)CN(c2ccc5c(c2)C(=O)N(C2CCC(=O)NC2=O)C5=O)C4)C3)CC1 (centres unmarked) [Compound 55, 5-(7-(4-(4-amino-3-(4-phenoxyphenyl)-1H-pyrazolo[3,4-d]pyrimidin-1-yl)piperidin-1-yl)-2,2′-diaza[2,7′-bispiro[3.5]nonan]-2′-yl)-2-(2,6-dioxopiperidin-3-yl)isoindoline-1,3-dione] | 99.9% | –
2 | Nc1ncnc2c1c(-c1ccc(Oc3ccccc3)cc1)nn2C1CCN(C2CCN(C3CN(c4ccc5c(c4)CN(C4CCC(=O)NC4=O)C5=O)C3)CC2)CC1 (centres unmarked) [Compound 25, 3-[5-[3-[4-[4-[4-amino-3-(4-phenoxyphenyl)pyrazolo[3,4-d]pyrimidin-1-yl]-1-piperidyl]-1-piperidyl]azetidin-1-yl]-1-oxo-isoindolin-2-yl]piperidine-2,6-dione] | – | IC50 (Homo sapiens): 282 nM
3 | NC(=O)c1c(-c2ccc(Oc3ccccc3)cc2)nn2c1NCC[C@H]2C1CCN(C2CCN(C3CN(c4ccc5c(c4)C(=O)N(C4CCC(=O)NC4=O)C5=O)C3)CC2)CC1 (stereo partly drawn) [Compound 30, (7S)-7-[1-[1-[1-[2-(2,6-dioxo-3-piperidyl)-1,3-dioxo-isoindolin-5-yl]azetidin-3-yl]-4-piperidyl]-4-piperidyl]-2-(4-phenoxyphenyl)-4,5,6,7-tetrahydropyrazolo[1,5-a]pyrimidine-3-carboxamide trifluoroacetate] | 82.5% | –
4 | Nc1ncnc2c1c(-c1ccc(Oc3ccccc3)cc1)nn2C1CCN(C2CC3CCC(C2)N3C2CN(c3ccc4c(c3)C(=O)N(C3CCC(=O)NC3=O)C4=O)C2)CC1 (centres unmarked) [Compound 57, 5-(3-(3-(4-(4-amino-3-(4-phenoxyphenyl)-1H-pyrazolo[3,4-d]pyrimidin-1-yl)piperidin-1-yl)-8-azabicyclo[3.2.1]octan-8-yl)azetidin-1-yl)-2-(2,6-dioxopiperidin-3-yl)isoindoline-1,3-dione] | 99.2% | –
5 | Nc1ncnc2c1c(-c1ccc(Oc3ccccc3)cc1)nn2C1CCN(C2CCN(C3CN(c4ccc5c(c4)C(=O)N(C4CCC(=O)NC4=O)C5=O)C3)CC2F)CC1 (stereo not drawn) [Compound 49-1, cis-5-(3-(4-(4-amino-3-(4-phenoxyphenyl)-1H-pyrazolo[3,4-d]pyrimidin-1-yl)-3′-fluoro-[1,4′-bipiperidin]-1′-yl)azetidin-1-yl)-2-(2,6-dioxopiperidin-3-yl)isoindoline-1,3-dione-P1] | – | IC50: 113 nM
6 | Nc1ncnc2c1c(-c1ccc(Oc3ccccc3)cc1)nn2C1CCN(C2CCC3(CC2)CN(C2CN(c4ccc5c(c4)C(=O)N(C4CCC(=O)NC4=O)C5=O)C2)C3)CC1 (centres unmarked) [Compound 56, 5-(3-(7-(4-(4-amino-3-(4-phenoxyphenyl)-1H-pyrazolo[3,4-d]pyrimidin-1-yl)piperidin-1-yl)-2-azaspiro[3.5]nonan-2-yl)azetidin-1-yl)-2-(2,6-dioxopiperidin-3-yl)isoindoline-1,3-dione] | 99.9% | –
7 | Nc1ncnc2c1c(-c1ccc(Oc3ccccc3)cc1)nn2C1CCN(C2CN(C3CN(c4cccc5c4C(=O)N(C4CCC(=O)NC4=O)C5=O)C3)C2)CC1 (centres unmarked) [Compound 27, 4-[3-[3-[4-[4-amino-3-(4-phenoxyphenyl)pyrazolo[3,4-d]pyrimidin-1-yl]-1-piperidyl]azetidin-1-yl]azetidin-1-yl]-2-(2,6-dioxo-3-piperidyl)isoindoline-1,3-dione] | – | IC50 (Homo sapiens): 503 nM
8 | Nc1ncnc2c1c(-c1ccc(Oc3ccccc3)cc1)nn2C1CCN(C2CN(C3CN(c4ccc5c(c4)CN(C4CCC(=O)NC4=O)C5=O)C3)C2)CC1 (centres unmarked) [Compound 26, 3-[5-[3-[3-[4-[4-amino-3-(4-phenoxyphenyl)pyrazolo[3,4-d]pyrimidin-1-yl]-1-piperidyl]azetidin-1-yl]azetidin-1-yl]-1-oxo-isoindolin-2-yl]piperidine-2,6-dione] | 74.3% | –
